# Assay results taken from PubChem BioAssay (NCI).
#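 Tested at 5 concentrations; 48 h exposure; 96-well plates; endpoints linearly interpolated, else capped at highest concentration. TGI marks complete inhibition of growth.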
# Tests used:
# Experiment in all cases: NCI tumour cell line growth inhibition, 48 h
# [1] = test system: SK-MEL-5 melanoma
# [2] = test system: HT29 colon
# [3] = test system: SF-539 CNS
# [4] = test system: LOX IMVI melanoma
# [5] = test system: OVCAR-5 ovarian
# [6] = test system: MDA-MB-231 breast
# [7] = test system: A498 renal
# [8] = test system: MOLT-4 leukemia
# [9] = test system: HCT-116 colon
# [10] = test system: NCI-H23 lung
# [11] = test system: PC-3 prostate
# [12] = test system: U251 CNS
# [13] = test system: MALME-3M melanoma
# [14] = test system: SR leukemia
# [15] = test system: T-47D breast
# [16] = test system: SN12C renal
# [17] = test system: HOP-92 NSCLC
# [18] = test system: MDA-N
# [19] = test system: SNB-19 CNS
# [20] = test system: RXF 393 renal
# [21] = test system: M14 melanoma
# [22] = test system: A549 NSCLC
# [23] = test system: NCI/ADR-RES ovarian
# [24] = test system: COLO 205 colon
# [25] = test system: CCRF-CEM leukemia
# [26] = test system: KM12 colon
# [27] = test system: K-562 leukemia
# [28] = test system: SNB-75 CNS
# [29] = test system: TK-10 renal
# [30] = test system: ACHN renal
# [31] = test system: HL-60(TB) leukemia
# [32] = test system: CAKI-1 renal
# [33] = test system: OVCAR-4 ovarian
# [34] = test system: UO-31 renal
# [35] = test system: NCI-H226 lung
# [36] = test system: NCI-H460 lung
# [37] = test system: BT-549 breast
# [38] = test system: HCT-15 colon
# [39] = test system: EKVX NSCLC
# [40] = test system: NCI-H522 lung
# [41] = test system: 786-0 renal
# [42] = test system: HOP-62 NSCLC
# [43] = test system: HS 578T breast
# [44] = test system: DU-145 prostate
# [45] = test system: SK-OV-3 ovarian
# [46] = test system: OVCAR-8 ovarian
# [47] = test system: IGROV1 ovarian
# [48] = test system: MDA-MB-435
# [49] = test system: UACC-62 melanoma
# [50] = test system: SK-MEL-2 melanoma
# [51] = test system: SF-268 CNS
# [52] = test system: SF-295 CNS
# [53] = test system: SK-MEL-28 melanoma
# [54] = test system: OVCAR-3 ovarian
# [55] = test system: MCF7 breast
# [56] = test system: UACC-257 melanoma
# [57] = test system: SW-620 colon
# [58] = test system: RPMI-8226 leukemia
# [59] = test system: HCC-2998 colon
compound,measurement,setting,value
Cc1cc(C)c2c(=O)n(CN3CCC(C#N)(c4ccccc4)CC3)sc2n1,TGI,[1],> 100 µM
same,TGI,[2],> 100 µM
same,TGI,[3],98.3 µM
same,TGI,[4],69.9 µM
same,TGI,[5],90.9 µM
same,TGI,[6],> 100 µM
same,TGI,[7],> 100 µM
same,TGI,[8],> 100 µM
same,TGI,[9],> 100 µM
same,TGI,[10],> 100 µM
same,TGI,[11],> 100 µM
same,TGI,[12],> 100 µM
same,TGI,[13],46.5 µM
same,TGI,[14],> 100 µM
same,TGI,[15],> 100 µM
same,TGI,[16],> 100 µM
same,TGI,[17],> 100 µM
same,TGI,[18],80.3 µM
same,TGI,[19],> 100 µM
same,TGI,[20],48 µM
same,TGI,[21],> 100 µM
same,TGI,[22],> 100 µM
same,TGI,[23],> 100 µM
same,TGI,[24],> 100 µM
same,TGI,[25],> 100 µM
same,TGI,[26],> 100 µM
same,TGI,[27],> 100 µM
same,TGI,[28],76.1 µM
same,TGI,[29],63.6 µM
same,TGI,[30],44.1 µM
same,TGI,[31],49.7 µM
same,TGI,[32],> 100 µM
same,TGI,[33],88.8 µM
same,TGI,[34],34.1 µM
same,TGI,[35],> 100 µM
same,TGI,[36],> 100 µM
same,TGI,[37],> 100 µM
same,TGI,[38],> 100 µM
same,TGI,[39],> 100 µM
same,TGI,[40],31.3 µM
same,TGI,[41],52.6 µM
same,TGI,[42],> 100 µM
same,TGI,[43],> 100 µM
same,TGI,[44],> 100 µM
same,TGI,[45],> 100 µM
same,TGI,[46],81.5 µM
same,TGI,[47],> 100 µM
same,TGI,[48],65.5 µM
same,TGI,[49],> 100 µM
same,TGI,[50],> 100 µM
same,TGI,[51],> 100 µM
same,TGI,[52],> 100 µM
same,TGI,[53],> 100 µM
same,TGI,[54],> 100 µM
same,TGI,[55],> 100 µM
same,TGI,[56],44.6 µM
same,TGI,[57],67.7 µM
Nc1cc2c(nc3c4ccccc4c(N)cc3[n+]2-c2cccc3ccccc23)c2ccccc12 (tested in a mixture with another compound),TGI,[1],6.17 µM
same,TGI,[2],10.9 µM
same,TGI,[3],23.8 µM
same,TGI,[4],7.3 µM
same,TGI,[5],25.2 µM
same,TGI,[6],2.72 µM
same,TGI,[7],16.9 µM
same,TGI,[8],4.04 µM
same,TGI,[9],10.7 µM
same,TGI,[10],4.05 µM
same,TGI,[11],2.9 µM
same,TGI,[12],2.61 µM
same,TGI,[13],4.14 µM
same,TGI,[14],3.56 µM
same,TGI,[15],16.1 µM
same,TGI,[16],13.8 µM
same,TGI,[17],8.45 µM
same,TGI,[18],5.27 µM
same,TGI,[19],20.2 µM
same,TGI,[20],9.33 µM
same,TGI,[21],6.61 µM
same,TGI,[22],13.3 µM
same,TGI,[23],22.2 µM
same,TGI,[24],7.14 µM
same,TGI,[25],1.31 µM
same,TGI,[26],9.87 µM
same,TGI,[27],4.17 µM
same,TGI,[28],10.6 µM
same,TGI,[29],4.55 µM
same,TGI,[30],9.21 µM
same,TGI,[31],4.53 µM
same,TGI,[32],14.6 µM
same,TGI,[33],15.2 µM
same,TGI,[34],15.2 µM
same,TGI,[35],28.7 µM
same,TGI,[36],1.58 µM
same,TGI,[37],16.3 µM
same,TGI,[38],25.9 µM
same,TGI,[58],0.851 µM
same,TGI,[39],18.6 µM
same,TGI,[40],7.77 µM
same,TGI,[41],4.22 µM
same,TGI,[42],17.2 µM
same,TGI,[43],12 µM
same,TGI,[44],15.1 µM
same,TGI,[45],17.9 µM
same,TGI,[46],12.8 µM
same,TGI,[47],10.7 µM
same,TGI,[48],3 µM
same,TGI,[49],21.7 µM
same,TGI,[50],4.28 µM
same,TGI,[51],18.3 µM
same,TGI,[52],12.4 µM
same,TGI,[53],20 µM
same,TGI,[54],4.56 µM
same,TGI,[55],3.79 µM
same,TGI,[56],3.51 µM
same,TGI,[57],9.18 µM
CN(C)CCNc1ccc2c(=O)n(CCN(C)C)c(=O)n3c4ccccc4c(=O)c1c23,TGI,[1],0.163 µM
same,TGI,[2],1.68 µM
same,TGI,[3],0.272 µM
same,TGI,[4],1.48 µM
same,TGI,[5],5.03 µM
same,TGI,[6],0.682 µM
same,TGI,[7],0.554 µM
same,TGI,[8],< 0.0201 µM
same,TGI,[9],0.615 µM
same,TGI,[10],0.565 µM
same,TGI,[11],7.09 µM
same,TGI,[12],3.63 µM
same,TGI,[13],1.93 µM
same,TGI,[14],0.0298 µM
same,TGI,[15],3.89 µM
same,TGI,[16],0.294 µM
same,TGI,[17],0.462 µM
same,TGI,[18],0.71 µM
same,TGI,[19],7.12 µM
same,TGI,[20],0.688 µM
same,TGI,[21],1.81 µM
same,TGI,[22],> 40.3 µM
same,TGI,[23],5.5 µM
same,TGI,[24],0.671 µM
same,TGI,[26],1.14 µM
same,TGI,[28],0.403 µM
same,TGI,[59],0.473 µM
same,TGI,[29],4.31 µM
same,TGI,[31],0.286 µM
same,TGI,[32],2.05 µM
same,TGI,[34],1.8 µM
same,TGI,[35],1.58 µM
same,TGI,[36],0.364 µM
same,TGI,[37],5.7 µM
same,TGI,[58],0.0616 µM
same,TGI,[39],2.56 µM
same,TGI,[40],0.58 µM
same,TGI,[41],1.35 µM
same,TGI,[42],0.265 µM
same,TGI,[43],3.65 µM
same,TGI,[44],0.179 µM
same,TGI,[45],6.2 µM
same,TGI,[46],8.78 µM
same,TGI,[47],0.982 µM
same,TGI,[48],0.537 µM
same,TGI,[50],1.7 µM
same,TGI,[51],0.482 µM
same,TGI,[52],0.516 µM
same,TGI,[53],5.26 µM
same,TGI,[54],2.81 µM
same,TGI,[55],1.78 µM
same,TGI,[56],1.62 µM
same,TGI,[57],3.98 µM
